Measurements as given in the NIST ThermoML archive (doi:10.1021/je400395u).

Assay: mn = molality of the nth substance listed, in mol/kg
Details: 100 kPa, Liquid; for viscosity: Capillary tube (Ostwald / Ubbelohde) method; for mass density: Vibrating tube method

O=C1O[C@H]([C@@H](O)CO)C(O)=C1O [L-ascorbic acid] + O
Details | mass density, 293.15 K [kg/m3] | mass density, 303.15 K [kg/m3] | mass density, 313.15 K [kg/m3] | mass density, 323.15 K [kg/m3] | viscosity, 293.15 K [mPa·s] | viscosity, 303.15 K [mPa·s] | viscosity, 313.15 K [mPa·s] | viscosity, 323.15 K [mPa·s]
m1 = 0.1 | 1005.25 | 1002.56 | 999.06 | 994.78 | 1.042 | 0.828 | 0.677 | 0.565
m1 = 0.2 | 1012.12 | 1009.33 | 1005.69 | 1001.31 | 1.09 | 0.858 | 0.699 | 0.584
m1 = 0.2002 | 1012.12 | 1009.33 | 1005.69 | 1001.31 | 1.09 | 0.858 | 0.699 | 0.584
m1 = 0.3 | 1018.82 | 1015.91 | 1012.2 | 1007.78 | 1.128 | 0.894 | 0.724 | 0.603
m1 = 0.3141 | 1018.82 | 1015.91 | 1012.2 | 1007.78 | 1.128 | 0.894 | 0.724 | 0.603
m1 = 0.4 | 1025.4 | 1022.39 | 1018.62 | 1014.08 | 1.167 | 0.922 | 0.751 | 0.623

OC[C@@H](O)[C@@H](O)[C@H](O)[C@H](O)CO [mannitol] + O
Details | mass density, m1 = 0.2003 [kg/m3] | mass density, m1 = 0.4001 [kg/m3] | mass density, m1 = 0.5999 [kg/m3] | mass density, m1 = 0.7997 [kg/m3] | mass density, m1 = 1 [kg/m3] | viscosity, m1 = 0.2003 [mPa·s] | viscosity, m1 = 0.4001 [mPa·s] | viscosity, m1 = 0.5999 [mPa·s] | viscosity, m1 = 0.7997 [mPa·s] | viscosity, m1 = 1 [mPa·s]
293.15 K | 1010.6 | 1022.32 | 1033.48 | 1044.08 | 1054.22 | 1.106 | 1.219 | 1.345 | 1.486 | 1.634
303.15 K | 1007.89 | 1019.47 | 1030.47 | 1040.9 | 1050.86 | 0.875 | 0.957 | 1.048 | 1.151 | 1.256
313.15 K | 1004.33 | 1015.78 | 1026.64 | 1036.96 | 1046.81 | 0.713 | 0.774 | 0.842 | 0.918 | 0.996
323.15 K | 1000.02 | 1011.34 | 1022.08 | 1032.29 | 1042.03 | 0.592 | 0.64 | 0.693 | 0.751 | 0.811

OC[C@@H](O)[C@@H](O)CO [meso-1,2,3,4-butanetetrol] + O
Details | mass density, m1 = 0.2002 [kg/m3] | mass density, m1 = 0.4001 [kg/m3] | mass density, m1 = 0.6001 [kg/m3] | mass density, m1 = 0.7984 [kg/m3] | mass density, m1 = 0.9998 [kg/m3] | viscosity, m1 = 0.2002 [mPa·s] | viscosity, m1 = 0.4001 [mPa·s] | viscosity, m1 = 0.6001 [mPa·s] | viscosity, m1 = 0.7984 [mPa·s] | viscosity, m1 = 0.9998 [mPa·s]
293.15 K | 1005.26 | 1012.03 | 1018.54 | 1024.74 | 1030.79 | 1.069 | 1.134 | 1.204 | 1.278 | 1.358
303.15 K | 1002.58 | 1009.24 | 1015.65 | 1021.76 | 1027.73 | 0.849 | 0.895 | 0.947 | 1.001 | 1.058
313.15 K | 999.05 | 1005.61 | 1011.9 | 1017.92 | 1023.81 | 0.69 | 0.727 | 0.766 | 0.806 | 0.849
323.15 K | 994.8 | 1001.29 | 1007.55 | 1013.53 | 1019.39 | 0.576 | 0.604 | 0.634 | 0.665 | 0.698

OC[C@@H](O)[C@H](O)[C@@H](O)CO [xylitol] + O
Details | mass density, m1 = 0.2002 [kg/m3] | mass density, m1 = 0.4 [kg/m3] | mass density, m1 = 0.5996 [kg/m3] | mass density, m1 = 0.7997 [kg/m3] | mass density, m1 = 1 [kg/m3] | viscosity, m1 = 0.2002 [mPa·s] | viscosity, m1 = 0.4 [mPa·s] | viscosity, m1 = 0.5996 [mPa·s] | viscosity, m1 = 0.7997 [mPa·s] | viscosity, m1 = 1 [mPa·s]
293.15 K | 1008.14 | 1017.61 | 1026.67 | 1035.36 | 1043.71 | 1.081 | 1.168 | 1.249 | 1.343 | 1.449
303.15 K | 1005.4 | 1014.72 | 1023.62 | 1032.15 | 1040.36 | 0.858 | 0.917 | 0.981 | 1.056 | 1.125
313.15 K | 1001.83 | 1010.99 | 1019.76 | 1028.15 | 1036.24 | 0.699 | 0.743 | 0.792 | 0.845 | 0.901
323.15 K | 997.51 | 1006.53 | 1015.16 | 1023.43 | 1031.37 | 0.582 | 0.617 | 0.655 | 0.695 | 0.739
